Measured values: publication PMC11532403 (Signal Transduction and Targeted Therapy, 2024)
Like-named read-outs stand apart in the source and are kept apart here.

Legend:
[1] = Phase 1 trial: plasma pharmacokinetics; format: in vivo; conditions: human; for AUC(0-t): read-out: AUC0–12 h mean; for MRT inf: read-out: MRTINF_obs mean
Source text: Serial plasma samples were also collected in each patient after the first dose and during multiple-dose administration on Cycle 1 Day 28.

RET alterations in ctDNA = experiment: ctDNA profiling (1021-gene NGS panel); format: in vivo, human; conditions: Cycle 1 Day 28, of 23 patients
Protocol: A retrospective analysis of circulating tumor DNA (ctDNA) profiling was performed using longitudinal plasma samples obtained at baseline, Cycle 1 Day 28, and post-progressive disease. At baseline, blood samples from all patients were subjected for NGS. Among them, 67 (54.9%) patients had detectable RET alterations in ctDNA, including KIF5B-RET (51/122, 41.8%), CCDC6-RET (5/122, 4.1%), NCOA4-RET (3/122, 2.5%), RET^M918T mutation (7/122, 5.7%) and other RET variation (1/122, 0.8%).
For molecular profiling, plasma samples were collected at baseline, Cycle 1 Day 28, and post-progressive disease, and the ctDNA were isolated for analysis. Gene alteration status was analyzed at a central laboratory using a validated, commercially available 1021-gene NGS panel (GenePlus, Beijing, China).

cardiovascular system = experiment: Cardiovascular safety pharmacology; format: in vivo; conditions: males 2, 4, 6 mg/kg; females 4, 8, 12 mg/kg oral
Protocol: In the safety pharmacological study of cardiovascular effects, four male and four female beagles with buried implants were selected. […] The animals were evaluated by cage-side and detailed clinical observations, electrocardiogram, heart rate, body temperature and blood pressure.

central nervous system = experiment: Central nervous system safety pharmacology; format: in vivo, SD rats; conditions: single oral, males 15-40, females 30-80 mg/kg
Protocol: All rats were evaluated for cage-side observation, detailed clinical observation, body weight and neurofunctional behavioural indices including in-cage observation, restraint observation, field observation, stimulus reflex observation and body temperature.

respiratory system = experiment: Respiratory safety pharmacology; format: in vivo, SD rats; conditions: single oral, males 15-40, females 30-80 mg/kg
Protocol: All rats were evaluated by cage-side observation, detailed clinical observation, body weight and respiratory parameters (tidal volume, minute tidal volume and respiratory rate).

[2] = Plasma protein binding, rapid equilibrium dialysis; format: in vitro ADME; conditions: monkey, read-out: Plasma protein binding rate (converted)
[3] = Plasma protein binding, rapid equilibrium dialysis; format: in vitro ADME; conditions: rat, read-out: Plasma protein binding rate (converted)
CYP3A4 = experiment: CYP induction in hepatocytes; format: in vitro ADME, human; conditions: 1, 5, 50 μM, three donors
Caco-2 permeability = format: in vitro ADME, human
[4] = 20 mg, Cycle 1 Day 1, 20 mg BID (n = 1)
[5] = 20 mg, Cycle 1 Day 1, 20 mg QD (n = 1)
[6] = 40 mg, Cycle 1 Day 1, 40 mg BID (n = 3)
[7] = 80 mg, Cycle 1 Day 1, 80 mg BID (n = 3)
[8] = 120 mg, Cycle 1 Day 1, 120 mg BID (n = 3)
[9] = 160 mg, Cycle 1 Day 1, 160 mg BID (n = 23)
[10] = 160 mg, Cycle 1 Day 28, 160 mg BID (n = 15)
[11] = 200 mg, Cycle 1 Day 28, 200 mg BID (n = 5)
[12] = oral, 20 mg, Cycle 1 Day 28, 20 mg BID (n = 1)
[13] = oral, 20 mg, Cycle 1 Day 28, 20 mg QD (n = 1)
[14] = oral, 40 mg, Cycle 1 Day 28, 40 mg BID (n = 3)
[15] = oral, 80 mg, Cycle 1 Day 28, 80 mg BID (n = 3)
[16] = oral, 120 mg, Cycle 1 Day 28, 120 mg BID (n = 3)
[17] = oral, 200 mg, Cycle 1 Day 1, 200 mg BID (n = 9)

## COc1ccc(CN2C3CC2CN(c2ccc(-c4cc(N5CC(C)(O)C5)cn5ncc(C#N)c45)cn2)C3)cn1 [SY-5007, 6-(3-hydroxy-3-methylazetidin-1-yl)-4-(6-(6-((6-methoxypyridin-3-yl)methyl)-3,6-diazabicyclo[3.1.1]heptan-3-yl)pyridin-3-yl)pyrazolo[1,5-a]pyridine-3-carbonitrile]
[1]; [4]
  AUC(0-t): 1580 ng·h/mL
  MRT inf: 16.7 h
[1]; 20 mg, Cycle 1 Day 1, 20 mg BID (n = 1), read-out: AUCINF_obs mean
  AUC(0-inf): 3830 ng·h/mL
[1]; 20 mg, Cycle 1 Day 1, 20 mg BID (n = 1), read-out: Cmax mean
  Cmax: 214 ng/mL
[1]; 20 mg, Cycle 1 Day 1, 20 mg BID (n = 1), read-out: T1/2 mean (converted)
  half-life: 12.1 h
[1]; 20 mg, Cycle 1 Day 1, 20 mg BID (n = 1), read-out: Tmax mean
  Tmax: 4 h
[1]; [5]
  AUC(0-t): 2230 ng·h/mL
  MRT inf: 7.7 h
[1]; 20 mg, Cycle 1 Day 1, 20 mg QD (n = 1), read-out: AUCINF_obs mean
  AUC(0-inf): 2410 ng·h/mL
[1]; 20 mg, Cycle 1 Day 1, 20 mg QD (n = 1), read-out: Cmax mean
  Cmax: 391 ng/mL
[1]; 20 mg, Cycle 1 Day 1, 20 mg QD (n = 1), read-out: T1/2 mean (converted)
  half-life: 6.8 h
[1]; 20 mg, Cycle 1 Day 1, 20 mg QD (n = 1), read-out: Tmax mean
  Tmax: 1 h
[1]; [6]
  AUC(0-t): 2720 ng·h/mL
  MRT inf: 8.9 h
[1]; 40 mg, Cycle 1 Day 1, 40 mg BID (n = 3), read-out: AUCINF_obs mean
  AUC(0-inf): 3760 ng·h/mL
[1]; 40 mg, Cycle 1 Day 1, 40 mg BID (n = 3), read-out: Cmax mean
  Cmax: 714 ng/mL
[1]; 40 mg, Cycle 1 Day 1, 40 mg BID (n = 3), read-out: T1/2 mean (converted)
  half-life: 8.7 h
[1]; 40 mg, Cycle 1 Day 1, 40 mg BID (n = 3), read-out: Tmax mean
  Tmax: 0.5 h
[1]; [7]
  AUC(0-t): 5150 ng·h/mL
  MRT inf: 12.4 h
[1]; 80 mg, Cycle 1 Day 1, 80 mg BID (n = 3), read-out: AUCINF_obs mean
  AUC(0-inf): 7220 ng·h/mL
[1]; 80 mg, Cycle 1 Day 1, 80 mg BID (n = 3), read-out: Cmax mean
  Cmax: 1450 ng/mL
[1]; 80 mg, Cycle 1 Day 1, 80 mg BID (n = 3), read-out: T1/2 mean (converted)
  half-life: 37.8 h
[1]; 80 mg, Cycle 1 Day 1, 80 mg BID (n = 3), read-out: Tmax mean
  Tmax: 0.5 h
[1]; [8]
  AUC(0-t): 9270 ng·h/mL
  MRT inf: 11.6 h
[1]; 120 mg, Cycle 1 Day 1, 120 mg BID (n = 3), read-out: AUCINF_obs mean
  AUC(0-inf): 14100 ng·h/mL
[1]; 120 mg, Cycle 1 Day 1, 120 mg BID (n = 3), read-out: Cmax mean
  Cmax: 2470 ng/mL
[1]; 120 mg, Cycle 1 Day 1, 120 mg BID (n = 3), read-out: T1/2 mean (converted)
  half-life: 44.4 h
[1]; 120 mg, Cycle 1 Day 1, 120 mg BID (n = 3), read-out: Tmax mean
  Tmax: 0.5 h
[1]; [9]
  AUC(0-t): 16700 ng·h/mL
  MRT inf: 8.2 h
[1]; 160 mg, Cycle 1 Day 1, 160 mg BID (n = 23), read-out: AUCINF_obs mean
  AUC(0-inf): 21300 ng·h/mL
[1]; 160 mg, Cycle 1 Day 1, 160 mg BID (n = 23), read-out: Cmax mean
  Cmax: 3470 ng/mL
[1]; 160 mg, Cycle 1 Day 1, 160 mg BID (n = 23), read-out: T1/2 mean (converted)
  half-life: 10.8 h
[1]; 160 mg, Cycle 1 Day 1, 160 mg BID (n = 23), read-out: Tmax mean
  Tmax: 1 h
[1]; [10]
  AUC(0-t): 36800 ng·h/mL
  MRT inf: 13.9 h
[1]; 160 mg, Cycle 1 Day 28, 160 mg BID (n = 15), read-out: AUCINF_obs mean
  AUC(0-inf): 67200 ng·h/mL
[1]; 160 mg, Cycle 1 Day 28, 160 mg BID (n = 15), read-out: Cmax mean
  Cmax: 4730 ng/mL
[1]; 160 mg, Cycle 1 Day 28, 160 mg BID (n = 15), read-out: T1/2 mean (converted)
  half-life: 9 h
[1]; 160 mg, Cycle 1 Day 28, 160 mg BID (n = 15), read-out: Tmax mean
  Tmax: 2 h
[1]; [11]
  AUC(0-t): 41100 ng·h/mL
  MRT inf: 10.8 h
[1]; 200 mg, Cycle 1 Day 28, 200 mg BID (n = 5), read-out: AUCINF_obs mean
  AUC(0-inf): 63700 ng·h/mL
[1]; 200 mg, Cycle 1 Day 28, 200 mg BID (n = 5), read-out: Cmax mean
  Cmax: 5520 ng/mL
[1]; 200 mg, Cycle 1 Day 28, 200 mg BID (n = 5), read-out: T1/2 mean (converted)
  half-life: 7 h
[1]; 200 mg, Cycle 1 Day 28, 200 mg BID (n = 5), read-out: Tmax mean
  Tmax: 2 h
[1]; [12]
  AUC(0-t): 2940 ng·h/mL
  MRT inf: 9 h
[1]; oral, 20 mg, Cycle 1 Day 28, 20 mg BID (n = 1), read-out: AUCINF_obs mean
  AUC(0-inf): 4020 ng·h/mL
[1]; oral, 20 mg, Cycle 1 Day 28, 20 mg BID (n = 1), read-out: Cmax mean
  Cmax: 640 ng/mL
[1]; oral, 20 mg, Cycle 1 Day 28, 20 mg BID (n = 1), read-out: T1/2 mean (converted)
  half-life: 7.3 h
[1]; oral, 20 mg, Cycle 1 Day 28, 20 mg BID (n = 1), read-out: Tmax mean
  Tmax: 0.5 h
[1]; [13]
  AUC(0-t): 2200 ng·h/mL
  MRT inf: 7.7 h
[1]; oral, 20 mg, Cycle 1 Day 28, 20 mg QD (n = 1), read-out: AUCINF_obs mean
  AUC(0-inf): 2340 ng·h/mL
[1]; oral, 20 mg, Cycle 1 Day 28, 20 mg QD (n = 1), read-out: Cmax mean
  Cmax: 388 ng/mL
[1]; oral, 20 mg, Cycle 1 Day 28, 20 mg QD (n = 1), read-out: T1/2 mean (converted)
  half-life: 6 h
[1]; oral, 20 mg, Cycle 1 Day 28, 20 mg QD (n = 1), read-out: Tmax mean
  Tmax: 1 h
[1]; [14]
  AUC(0-t): 5810 ng·h/mL
  MRT inf: 6.8 h
[1]; oral, 40 mg, Cycle 1 Day 28, 40 mg BID (n = 3), read-out: AUCINF_obs mean
  AUC(0-inf): 7100 ng·h/mL
[1]; oral, 40 mg, Cycle 1 Day 28, 40 mg BID (n = 3), read-out: Cmax mean
  Cmax: 1280 ng/mL
[1]; oral, 40 mg, Cycle 1 Day 28, 40 mg BID (n = 3), read-out: T1/2 mean (converted)
  half-life: 5 h
[1]; oral, 40 mg, Cycle 1 Day 28, 40 mg BID (n = 3), read-out: Tmax mean
  Tmax: 0.5 h
[1]; [15]
  AUC(0-t): 12600 ng·h/mL
  MRT inf: 8.2 h
[1]; oral, 80 mg, Cycle 1 Day 28, 80 mg BID (n = 3), read-out: AUCINF_obs mean
  AUC(0-inf): 18800 ng·h/mL
[1]; oral, 80 mg, Cycle 1 Day 28, 80 mg BID (n = 3), read-out: Cmax mean
  Cmax: 1960 ng/mL
[1]; oral, 80 mg, Cycle 1 Day 28, 80 mg BID (n = 3), read-out: T1/2 mean (converted)
  half-life: 5.5 h
[1]; oral, 80 mg, Cycle 1 Day 28, 80 mg BID (n = 3), read-out: Tmax mean
  Tmax: 1 h
[1]; [16]
  AUC(0-t): 21500 ng·h/mL
  MRT inf: 10.5 h
[1]; oral, 120 mg, Cycle 1 Day 28, 120 mg BID (n = 3), read-out: AUCINF_obs mean
  AUC(0-inf): 34000 ng·h/mL
[1]; oral, 120 mg, Cycle 1 Day 28, 120 mg BID (n = 3), read-out: Cmax mean
  Cmax: 2870 ng/mL
[1]; oral, 120 mg, Cycle 1 Day 28, 120 mg BID (n = 3), read-out: T1/2 mean (converted)
  half-life: 7 h
[1]; oral, 120 mg, Cycle 1 Day 28, 120 mg BID (n = 3), read-out: Tmax mean
  Tmax: 1 h
[1]; [17]
  AUC(0-t): 14900 ng·h/mL
  MRT inf: 15 h
[1]; oral, 200 mg, Cycle 1 Day 1, 200 mg BID (n = 9), read-out: AUCINF_obs mean
  AUC(0-inf): 21600 ng·h/mL
[1]; oral, 200 mg, Cycle 1 Day 1, 200 mg BID (n = 9), read-out: Cmax mean
  Cmax: 3180 ng/mL
[1]; oral, 200 mg, Cycle 1 Day 1, 200 mg BID (n = 9), read-out: T1/2 mean (converted)
  half-life: 23.9 h
[1]; oral, 200 mg, Cycle 1 Day 1, 200 mg BID (n = 9), read-out: Tmax mean
  Tmax: 1 h
[1]; oral, single dose, 20 mg to 160 mg, read-out: AUCINF_obs range
  AUC(0-inf): 2410 to 21300 ng·h/mL
[1]; oral, single dose, 20 mg to 160 mg, read-out: Cmax range
  Cmax: 214 to 3470 ng/mL
[1]; oral, single dose, read-out: Mean T1/2 across dose cohorts
  half-life: 6.8 to 44.4 h
[1]; oral, single dose, read-out: Mean Tmax across dose cohorts
  Tmax: 0.5 to 4 h
RET alterations in ctDNA
  Patients with complete RET clearance in ctDNA: 21 patients
Cardiovascular system
  Cardiovascular effects: None of the changes were found to be related to the study drug
Central nervous system
  CNS effects: did not affect any of the assessed neurofunctional-behavioural parameters
Respiratory system
  Respiratory effects: nor did it show any effects on the respiratory parameters
[2]
  fraction unbound: 0.023
[3]
  fraction unbound: 0.034
CYP3A4
  CYP3A4 induction: no induction
Caco-2 permeability
  Permeability class: moderately permeable
